System: E. coli (pXL2087) immobilized on resin
Assay: Hydrolysis of adiponitrile in a fixed bed reactor with immobilized E. coli (pXL2087)
Format: cell-based
Details: 28° C., adiponitrile 50 mM, pH 7, flow rate 3.7 ml/h
Experimental: The half-life is determined in a continuously fed fixed bed reactor under the conditions indicated below:
T 28° C.; catalyst 0.5 g or 2 ml or 85 mg of cells (dry weight); [adiponitrile] 50 mM; phosphate buffer 50 mM, pH 7; flow rate 3.7±0.1 ml/h; column: diameter 1 cm, height 3 cm.
The initial activity of the cells was 1.5 μmol of adipate/h/mg of cells (dry weight). 66% of the initial activity is preserved after 32 days or 770 h.

N#CCCCCC#N [Adiponitrile, adiponitrile]
initial activity of the cells: 1.5 μmol of adipate/h/mg of cells (dry weight)
